{"source": "patent US20070232601A1", "about": "“Vla-4 Inhibitor” (priority 2004, published 2007)", "key": {"[1]": {"test": "Dispersibility test in Japanese Pharmacopoeia First and Second Solution", "format": "physicochemical", "conditions": "for Dispersibility in Japanese Pharmacopoeia First Solution: JP1, pH 1.2; for Dispersibility in Japanese Pharmacopoeia Second Solution: JP2, pH 6.8", "description": "Dispersibility of a test substance in Japanese Pharmacopoeia First Solution (JP1, pH 1.2) and Japanese Pharmacopoeia Second Solution (JP2, pH 6.8) was evaluated."}, "[2]": {"target": "T1, hα4 and β1 integrins (VLA-4) (Homo sapiens, UniProt P05556+P13612)", "T1 construct": "expressed in transfected cells; host or cells: CHO cells", "T1 sequence (P13612 34-1032)": "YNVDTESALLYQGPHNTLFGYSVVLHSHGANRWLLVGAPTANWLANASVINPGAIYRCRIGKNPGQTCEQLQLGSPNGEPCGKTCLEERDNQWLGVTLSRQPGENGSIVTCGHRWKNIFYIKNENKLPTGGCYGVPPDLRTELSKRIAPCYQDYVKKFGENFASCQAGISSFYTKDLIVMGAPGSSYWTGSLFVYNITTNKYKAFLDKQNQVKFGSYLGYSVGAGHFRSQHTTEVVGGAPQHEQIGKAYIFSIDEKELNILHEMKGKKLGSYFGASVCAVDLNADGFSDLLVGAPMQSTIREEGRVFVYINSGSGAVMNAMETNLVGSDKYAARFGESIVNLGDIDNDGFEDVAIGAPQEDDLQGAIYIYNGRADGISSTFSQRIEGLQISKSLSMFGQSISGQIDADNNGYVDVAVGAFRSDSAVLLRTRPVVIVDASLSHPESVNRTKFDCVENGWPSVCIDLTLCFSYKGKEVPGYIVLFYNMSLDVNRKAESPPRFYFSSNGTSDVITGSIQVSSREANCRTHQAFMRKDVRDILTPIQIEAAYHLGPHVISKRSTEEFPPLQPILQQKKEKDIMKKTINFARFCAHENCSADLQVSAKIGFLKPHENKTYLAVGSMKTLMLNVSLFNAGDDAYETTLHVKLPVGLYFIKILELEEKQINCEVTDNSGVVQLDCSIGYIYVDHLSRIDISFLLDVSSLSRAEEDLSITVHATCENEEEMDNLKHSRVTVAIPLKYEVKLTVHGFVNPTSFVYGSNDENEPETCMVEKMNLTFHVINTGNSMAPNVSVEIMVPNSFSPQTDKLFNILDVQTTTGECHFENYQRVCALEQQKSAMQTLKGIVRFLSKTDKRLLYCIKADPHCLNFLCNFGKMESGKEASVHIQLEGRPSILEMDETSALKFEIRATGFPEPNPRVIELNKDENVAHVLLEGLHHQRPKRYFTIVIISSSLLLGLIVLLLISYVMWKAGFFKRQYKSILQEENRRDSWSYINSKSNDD", "T1 sequence (P05556 21-798)": "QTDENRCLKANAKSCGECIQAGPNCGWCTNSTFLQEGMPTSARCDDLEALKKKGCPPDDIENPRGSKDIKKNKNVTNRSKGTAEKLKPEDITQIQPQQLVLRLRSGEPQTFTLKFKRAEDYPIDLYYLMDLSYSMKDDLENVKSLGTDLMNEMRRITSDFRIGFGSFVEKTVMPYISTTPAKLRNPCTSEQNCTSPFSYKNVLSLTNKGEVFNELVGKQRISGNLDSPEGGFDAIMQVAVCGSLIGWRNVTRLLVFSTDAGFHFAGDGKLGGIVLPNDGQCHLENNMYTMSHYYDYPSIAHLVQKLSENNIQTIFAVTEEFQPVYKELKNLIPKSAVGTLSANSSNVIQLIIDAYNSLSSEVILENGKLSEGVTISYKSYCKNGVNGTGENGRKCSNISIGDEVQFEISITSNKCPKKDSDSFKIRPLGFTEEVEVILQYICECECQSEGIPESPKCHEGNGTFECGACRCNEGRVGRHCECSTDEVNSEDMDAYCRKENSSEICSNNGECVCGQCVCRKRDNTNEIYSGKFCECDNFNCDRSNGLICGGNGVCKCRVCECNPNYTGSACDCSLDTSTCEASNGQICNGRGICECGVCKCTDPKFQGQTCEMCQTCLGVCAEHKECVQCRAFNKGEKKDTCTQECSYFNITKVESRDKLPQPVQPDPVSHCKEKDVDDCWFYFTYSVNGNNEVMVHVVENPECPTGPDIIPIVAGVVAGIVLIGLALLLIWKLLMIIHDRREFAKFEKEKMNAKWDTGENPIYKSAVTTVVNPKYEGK", "test": "In vitro evaluation: inhibition of binding of CHO cells expressing hα4 and β1 integrins to Eu3+-hVCAM-1 D1D7-IgG", "conditions": "ligand Eu3+-hVCAM-1 D1D7-IgG 2 nM, Ki calculated from IC50", "in_short": "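CHO cells stably expressing hα4β1 were cultured 2 days, then incubated 1 h at room temperature with Eu3+-hVCAM-1 D1D7-IgG (added as 2 nM solution) and compound in HEPES pH 7.5 with Ca2+, Mg2+ and 4 mM Mn2+, ± 6% human serum albumin. Bound europium was read by time-resolved fluorescence; IC50 was converted to Ki using Scatchard-derived Kd.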"}}, "data": [{"smiles": "COc1ccccc1Nc1nc2ccc(CC(=O)N3C[C@@H](OC)C[C@H]3c3ncc(CCC(=O)O)s3)c(F)c2o1", "note": "[Example 10, 3-[2-[1-[[7-Fluoro-2-(2-methoxyphenylamino)-1,3-benzoxazol-6-yl]acetyl]-(4S)-methoxy-(2S)-pyrrolidinyl]-5-thiazolyl]propionic acid]", "values": [{"measurement": "Dispersibility in Japanese Pharmacopoeia First Solution", "setting": "[1]", "value": 1700, "unit": "µg/mL"}, {"measurement": "Dispersibility in Japanese Pharmacopoeia Second Solution", "setting": "[1]", "value": 2000, "unit": "µg/mL"}, {"measurement": "Ki", "setting": "[2]", "value": 0.56, "unit": "nM"}]}, {"smiles": "CO[C@@H]1C[C@@H](c2ncc(CCC(=O)O)s2)N(C(=O)Cc2cc(Cl)c(NC(=O)c3csc4ccccc34)cc2F)C1", "note": "[Example 25, 3-[2-[1-[4-[(3-Benzo[b]thienylcarbonyl)amino]-5-chloro-2-fluorophenylacetyl]-(4R)-methoxy-(2S)-pyrrolidinyl]-5-thiazolyl]propionic acid]", "values": [{"measurement": "Dispersibility in Japanese Pharmacopoeia First Solution", "setting": "[1]", "value": 7, "unit": "µg/mL"}, {"measurement": "Dispersibility in Japanese Pharmacopoeia Second Solution", "setting": "[1]", "value": 330, "unit": "µg/mL"}, {"measurement": "Ki", "setting": "[2]", "value": 0.84, "unit": "nM"}]}, {"smiles": "Cn1cc(C(=O)Nc2cc(Cl)c(CC(=O)N3CCC[C@H]3c3ncc(CCC(=O)O)s3)cc2Cl)c2ccccc21", "note": "[Example 26, 3-[2-[1-[2,5-Dichloro-4-(1-methyl-3-indolylcarbonylamino)phenylacetyl]-(2S)-pyrrolidinyl]-5-thiazolyl]propionic acid]", "values": [{"measurement": "Dispersibility in Japanese Pharmacopoeia First Solution", "setting": "[1]", "value": 4, "unit": "µg/mL"}, {"measurement": "Dispersibility in Japanese Pharmacopoeia Second Solution", "setting": "[1]", "value": 660, "unit": "µg/mL"}, {"measurement": "Ki", "setting": "[2]", "value": 2.5, "unit": "nM"}]}, {"smiles": "O=C(O)CCc1cnc([C@@H]2C[C@H](Oc3cccnc3)CN2C(=O)Cc2cc(Cl)c(NC(=O)c3csc4ccccc34)cc2F)s1", "note": "[Example 45, 3-[2-[1-[4-[(3-Benzo[b]thienylcarbonyl)amino]-5-chloro-2-fluorophenylacetyl]-(4S)-(3-pyridyloxy)-(2S)-pyrrolidinyl]-5-thiazolyl]propionic acid]", "values": [{"measurement": "Dispersibility in Japanese Pharmacopoeia First Solution", "setting": "[1]", "value": 2000, "unit": "µg/mL"}, {"measurement": "Dispersibility in Japanese Pharmacopoeia Second Solution", "setting": "[1]", "value": 200, "unit": "µg/mL"}, {"measurement": "Ki", "setting": "[2]", "value": 1.6, "unit": "nM"}]}, {"smiles": "O=C(O)CCc1cnc([C@@H]2C[C@H](N3CCCCC3)CN2C(=O)Cc2cc(Cl)c(NC(=O)c3csc4ccccc34)cc2F)s1", "note": "[Example 47, 3-[2-[1-[4-[(3-Benzo[b]thienylcarbonyl)amino]-5-chloro-2-fluorophenylacetyl]-(4S)-(1-piperidinyl)-(2S)-pyrrolidinyl]-5-thiazolyl]propionic acid]", "values": [{"measurement": "Dispersibility in Japanese Pharmacopoeia First Solution", "setting": "[1]", "value": ">2000", "unit": "µg/mL"}, {"measurement": "Dispersibility in Japanese Pharmacopoeia Second Solution", "setting": "[1]", "value": 510, "unit": "µg/mL"}, {"measurement": "Ki", "setting": "[2]", "value": 0.93, "unit": "nM"}]}, {"smiles": "COC1CN([C@H]2C[C@@H](c3ncc(CCC(=O)O)s3)N(C(=O)Cc3cc(Cl)c(NC(=O)c4cn(C)c5ccccc45)cc3F)C2)C1", "note": "[Example 63, 3-[2-[1-[5-Chloro-2-fluoro-4-(1-methyl-3-indolylcarbonylamino)phenylacetyl]-(4S)-[1-(3-methoxy)azetidinyl]-(2S)-pyrrolidinyl]-5-thiazolyl]propionic acid]", "values": [{"measurement": "Dispersibility in Japanese Pharmacopoeia First Solution", "setting": "[1]", "value": 1000, "unit": "µg/mL"}, {"measurement": "Dispersibility in Japanese Pharmacopoeia Second Solution", "setting": "[1]", "value": 1000, "unit": "µg/mL"}, {"measurement": "Ki", "setting": "[2]", "value": 0.89, "unit": "nM"}]}, {"smiles": "COC1CN([C@H]2C[C@@H](c3ncc(CCC(=O)O)s3)N(C(=O)Cc3cc(Cl)c(NC(=O)c4cn(C)c5ccccc45)cc3Cl)C2)C1", "note": "[Example 64, 3-[2-[1-[2,5-Dichloro-4-(1-methyl-3-indolylcarbonylamino)phenylacetyl]-(4S)-[1-(3-methoxy)-azetidinyl]-(2S)-pyrrolidinyl]-5-thiazolyl]propionic acid]", "values": [{"measurement": "Dispersibility in Japanese Pharmacopoeia First Solution", "setting": "[1]", "value": 1000, "unit": "µg/mL"}, {"measurement": "Dispersibility in Japanese Pharmacopoeia Second Solution", "setting": "[1]", "value": 1000, "unit": "µg/mL"}, {"measurement": "Ki", "setting": "[2]", "value": 3.8, "unit": "nM"}]}, {"smiles": "COC1CN([C@H]2C[C@@H](c3ncc(CCC(=O)O)s3)N(C(=O)Cc3cc(Cl)c(NC(=O)c4csc5ccccc45)cc3F)C2)C1", "note": "[Example 65, 3-[2-[1-[4-(3-Benzo[b]thiophenylcarbonylamino)-5-chloro-2-fluorophenylacetyl]-(4S)-[1-(3-methoxy)azetidinyl]-(2S)-pyrrolidinyl]-5-thiazolyl]propionic acid]", "values": [{"measurement": "Dispersibility in Japanese Pharmacopoeia First Solution", "setting": "[1]", "value": 1000, "unit": "µg/mL"}, {"measurement": "Dispersibility in Japanese Pharmacopoeia Second Solution", "setting": "[1]", "value": 1000, "unit": "µg/mL"}, {"measurement": "Ki", "setting": "[2]", "value": 0.93, "unit": "nM"}]}, {"smiles": "COC1CN([C@H]2C[C@@H](c3ncc(CCC(=O)O)s3)N(C(=O)Cc3cc(Cl)c(NC(=O)c4csc5ccccc45)cc3Cl)C2)C1", "note": "[Example 66]", "values": [{"measurement": "Dispersibility in Japanese Pharmacopoeia First Solution", "setting": "[1]", "value": 1000, "unit": "µg/mL"}, {"measurement": "Dispersibility in Japanese Pharmacopoeia Second Solution", "setting": "[1]", "value": 1000, "unit": "µg/mL"}, {"measurement": "Ki", "setting": "[2]", "value": 0.84, "unit": "nM"}]}, {"smiles": "COC1CN([C@H]2C[C@@H](c3ncc(CCC(=O)O)s3)N(C(=O)Cc3cc(Cl)c(NC(=O)c4coc5ccccc45)cc3F)C2)C1", "note": "[Example 67, 3-[2-[1-[4-(3-Benzo[b]furanylcarbonylamino)-5-chloro-2-fluorophenylacetyl]-(4S)-[1-(3-methoxy)azetidinyl]-(2S)-pyrrolidinyl]-5-thiazolyl]propionic acid]", "values": [{"measurement": "Dispersibility in Japanese Pharmacopoeia First Solution", "setting": "[1]", "value": 1000, "unit": "µg/mL"}, {"measurement": "Dispersibility in Japanese Pharmacopoeia Second Solution", "setting": "[1]", "value": 1000, "unit": "µg/mL"}, {"measurement": "Ki", "setting": "[2]", "value": 1.2, "unit": "nM"}]}, {"smiles": "COC1CN([C@H]2C[C@@H](c3ncc(CCC(=O)O)s3)N(C(=O)Cc3cc(Cl)c(NC(=O)c4coc5ccccc45)cc3Cl)C2)C1", "note": "[Example 68, 3-[2-[[1-4-(3-Benzo[b]furanylcarbonylamino)-2,5-dichlorophenylacetyl]-(4S)-[1-(3-methoxy)azetidinyl]-(2S)-pyrrolidinyl]-5-thiazolyl]propionic acid]", "values": [{"measurement": "Dispersibility in Japanese Pharmacopoeia First Solution", "setting": "[1]", "value": 1000, "unit": "µg/mL"}, {"measurement": "Dispersibility in Japanese Pharmacopoeia Second Solution", "setting": "[1]", "value": 1000, "unit": "µg/mL"}, {"measurement": "Ki", "setting": "[2]", "value": 0.73, "unit": "nM"}]}, {"smiles": "CCOC1CN([C@H]2C[C@@H](c3ncc(CCC(=O)O)s3)N(C(=O)Cc3cc(Cl)c(NC(=O)c4cn(C)c5ccccc45)cc3F)C2)C1", "note": "[Example 69, 3-[2-[1-[5-Chloro-2-fluoro-4-(1-methyl-3-indolylcarbonylamino)phenylacetyl]-(4S)-[1-(3-ethoxy)azeditinyl]-(2S)-pyrroldinyl]-5-thiazolyl]propionic acid]", "values": [{"measurement": "Dispersibility in Japanese Pharmacopoeia First Solution", "setting": "[1]", "value": 940, "unit": "µg/mL"}, {"measurement": "Dispersibility in Japanese Pharmacopoeia Second Solution", "setting": "[1]", "value": 940, "unit": "µg/mL"}, {"measurement": "Ki", "setting": "[2]", "value": 0.71, "unit": "nM"}]}, {"smiles": "CCOC1CN([C@H]2C[C@@H](c3ncc(CCC(=O)O)s3)N(C(=O)Cc3cc(Cl)c(NC(=O)c4cn(C)c5ccccc45)cc3Cl)C2)C1", "note": "[Example 70, 3-[2-[1-[2,5-Dichloro-4-(1-methyl-3-indolylcarbonylamino)phenylacetyl]-(4S)-[1-(3-ethoxy)azetidinyl]-(2S)-pyrrolidinyl]-5-thiazolyl]propionic acid]", "values": [{"measurement": "Dispersibility in Japanese Pharmacopoeia First Solution", "setting": "[1]", "value": 960, "unit": "µg/mL"}, {"measurement": "Dispersibility in Japanese Pharmacopoeia Second Solution", "setting": "[1]", "value": 960, "unit": "µg/mL"}, {"measurement": "Ki", "setting": "[2]", "value": 2.3, "unit": "nM"}]}, {"smiles": "CCOC1CN([C@H]2C[C@@H](c3ncc(CCC(=O)O)s3)N(C(=O)Cc3cc(Cl)c(NC(=O)c4csc5ccccc45)cc3F)C2)C1", "note": "[Example 71, 3-[2-[1-[4-(3-Benzo[b]thiophenylcarbonylamino)-5-chloro-2-fluorophenylacetyl]-(4S)-1-(3-ethoxy)azetidinyl-(2S)-pyrrolidinyl]-5-thiazolyl]propionic acid]", "values": [{"measurement": "Dispersibility in Japanese Pharmacopoeia First Solution", "setting": "[1]", "value": 940, "unit": "µg/mL"}, {"measurement": "Dispersibility in Japanese Pharmacopoeia Second Solution", "setting": "[1]", "value": 940, "unit": "µg/mL"}, {"measurement": "Ki", "setting": "[2]", "value": 0.5, "unit": "nM"}]}, {"smiles": "CON(C)[C@H]1C[C@@H](c2ncc(CCC(=O)O)s2)N(C(=O)Cc2cc(Cl)c(NC(=O)c3cn(C)c4ccccc34)cc2F)C1", "note": "[Example 127, 3-[2-[1-[5-Chloro-2-fluoro-4-(1-methyl-3-indolylcarbonylamino)phenylacetyl]-(4S)—N,O-dimethylhydroxylamino-(2S)-pyrrolidinyl]-5-thiazolyl]propionic acid]", "values": [{"measurement": "Ki", "setting": "[2]", "value": 4.5, "unit": "nM"}]}, {"smiles": "CON(C)[C@H]1C[C@@H](c2ncc(CCC(=O)O)s2)N(C(=O)Cc2cc(Cl)c(NC(=O)c3cn(C)c4ccccc34)cc2Cl)C1", "note": "[Example 128, 3-[3-[1-[2,5-Dichloro-4-(1-methyl-3-indolylcarbonylamino)phenylacetyl]-(4S)—N,O-dimethylhydroxylamino-(2S)-pyrrolidinyl]-5-thiazolyl]propionic acid]", "values": [{"measurement": "Ki", "setting": "[2]", "value": 6.7, "unit": "nM"}]}, {"smiles": "CON(C)[C@H]1C[C@@H](c2ncc(CCC(=O)O)s2)N(C(=O)Cc2cc(Cl)c(NC(=O)c3csc4ccccc34)cc2F)C1", "note": "[Example 129, 3-[2-[1-[4-(3-Benzo[b]thiophenylcarbonylamino)-5-chloro-2-fluorophenylacetyl]-(4S)—N,O-dimethylhydroxylamino-(2S)-pyrrolidinyl]-5-thiazolyl]propionic acid]", "values": [{"measurement": "Ki", "setting": "[2]", "value": 2.4, "unit": "nM"}]}, {"smiles": "CON(C)[C@H]1C[C@@H](c2ncc(CCC(=O)O)s2)N(C(=O)Cc2cc(Cl)c(NC(=O)c3csc4ccccc34)cc2Cl)C1", "note": "[Example 130, 3-[2-[1-[4-(3-Benzo[b]thiophenylcarbonylamino)-2,5-dichlorophenylacetyl]-(4S)—N,O-dimethylhydroxylamino-(2S)-pyrrolidinyl]-5-thiazolyl]propionic acid]", "values": [{"measurement": "Ki", "setting": "[2]", "value": 3.5, "unit": "nM"}]}, {"smiles": "CON(C)[C@H]1C[C@@H](c2ncc(CCC(=O)O)s2)N(C(=O)Cc2cc(Cl)c(NC(=O)c3coc4ccccc34)cc2F)C1", "note": "[Example 131, 3-[2-[1-[4-(3-Benzo[b]furanylcarbonylamino)-5-chloro-2-fluorophenylacetyl]-(4S)—N,O-dimethylhydroxylamino-(2S)-pyrrolidinyl]-5-thiazolyl]propionic acid]", "values": [{"measurement": "Ki", "setting": "[2]", "value": 5.9, "unit": "nM"}]}, {"smiles": "CON(C)[C@H]1C[C@@H](c2ncc(CCC(=O)O)s2)N(C(=O)Cc2cc(Cl)c(NC(=O)c3coc4ccccc34)cc2Cl)C1", "note": "[Example 132, 3-[2-[1-[-(3-Benzo[b]furanylcarbonylamino)-2,5-dichlorophenylacetyl]-(4S)—N,O-dimethylhydroxylamino-(2S)-pyrrolidinyl]-5-thiazolyl]propionic acid]", "values": [{"measurement": "Ki", "setting": "[2]", "value": 13, "unit": "nM"}]}, {"smiles": "COC[C@@]1(c2ncc(CCC(=O)O)s2)C[C@H](OC)CN1C(=O)Cc1cc(Cl)c(NC(=O)c2cn(C)c3ccccc23)cc1Cl", "note": "[Example 133, 3-{2-[(2R,4S)-1-[2-(2,5-dichloro-4-{[(1-methyl-1H-indol-3-yl)carbonyl]amino}phenyl)acetyl]-4-methoxy-2-(methoxymethyl)pyrrolidinyl]thiazol-5-yl}propionic acid]", "values": [{"measurement": "Ki", "setting": "[2]", "value": 4.5, "unit": "nM"}]}]}
